Entries after “also recorded” stand apart in the source; their conditions may differ.
Tests used:
[1] = system: 5LO (Ser523 phosphorylated 5LO); test: immunoblotting of total 5LO and P-5LO in rat myocardium (whole cell homogenate); assay type: in vivo; settings: for myocardial levels of Ser523 phosphorylated 5LO (P-5LO) / myocardial total 5LO levels: whole cell homogenate, PIO or ATV 10 mg/kg/d 3 days, H-89 20 mg/kg i.p.
Description: Rats received: 1) PIO (10 mg/kg/d); 2) ATV (10 mg/kg/d); 3) PIO (10 mg/kg/d)+H89 (20 mg/kg); 4) ATV (10 mg/kg/d)+H89 (20 mg/kg); 5) H89 (20 mg/kg) or 6) water alone (control). PIO and ATV were suspended in water and administered by gastric gavage once daily for 3 days; H-89 was dissolved in DMSO (final concentration 5% v/v) and injected intraperitoneally on the third day. Rats in groups 5 and 6 received water by gastric gavage once daily for 3 days. Rats in groups 1, 2 and 6 received intraperitoneal inkection of DMSO 5%. Sixteen hours after the injection, rats were euthanized and the hearts explanted for further analyses. In another experiment, rats received 3-day pretreatment with: 1) water (sham); 2) PIO (10 mg/kg/d); 3) ATV (10 mg/kg/d); 4) PIO (10 mg/kg/d)+ATV (10 mg/kg/d); or 5) LPS (10 mg/kg).
PIO and ATV were administered by oral gavage once daily as above; LPS was administered intravenously. In addition, rats in groups 1-4 received intravenous saline on the […], whereas rats in group 1 and 5 received water by gastric gavage once daily for 3 days and the LPS injection on the third day. Sixteen hours after the injection, rats were euthanized and the hearts explanted for further analyses.
The hearts were rapidly explanted, rinsed in cold PBS (pH 7.4), containing 0.16 mg/ml heparin to remove red blood cells and clots, frozen in liquid nitrogen and stored at −70° C. Myocardial samples from the anterior left ventricular wall were homogenized in RIPA lysis buffer (Santa Cruz Biotechnology, Santa Cruz, Calif.) and centrifuged at 14,000 rpm for 15 min at 4° C. The supernatant was collected and the total protein concentration was determined using the Lowry protein assay. […] The protein samples with loading buffer were run in 4-20% Tri-HCl Ready Gel at a 100V for 2 h until the desired molecular weight bands were separated. After electrophoresis, the gel was equilibrated in transfer buffer (25 mM Tris, 193 mM glycine, 0.1% SDS and 10% methanol) and the proteins were transferred to nitrocellulose membrane. The protein signals were quantified by an image-scanning-densitometer and the strength of each protein signal was normalized to the corresponding b-actin stain signal. Data are expressed as a ratio between the protein and the corresponding b-actin signal density.

[2] = system: 5LO mRNA; test: rtPCR of 5LO mRNA in adult rat cardiomyocytes; assay type: cell-based
Description: Cardiac myocytes were isolated from adult Sprague-Dawley rats (250-300 g, male). Animals were heparinized (1,000-2,000 units i.p.) 5 min before being anesthetized with ketamine (100 mg/kg) and xylazine (10 mg/kg), and the hearts were removed and placed in ice-cold heart media solution (in mmol/l: 112 NaCl, 5.4 KCl, 1 MgCl2, 9 NaH2PO4, and 11.1 D-glucose; supplemented with 10 HEPES, 30 taurine, 2 DL-carnitine, and 2 creatine, pH. 7.4). The hearts were perfused retrogradely in a Langendorff apparatus with Ca^2+-free heart media for 5 min at 5 ml/min at 37° C., followed by perfusion with Ca^2+-free heart media containing collagenase II, 210 U/mg (Worthington, Lakewood, N.J.) for 20 min. After perfusion, both ventricles were removed from the heart and minced in collagenase II-containing heart media for 10-15 min. The cell solution was then washed several times to remove collagenase II and reexposed to 1.2 mM Ca2^+ over 25 min to produce Ca2^+-tolerant cardiac myocytes. Myocytes were then plated in 4% FBS on laminin (2 μg/cm^2)-coated plates for 1 h and incubated at 37° C. in 5% CO2 for 12-24 h before experiments (21). Cells were incubated with 1) vehicle (0.07% ethanol); 2) PIO (10 μM)+ATV (10 μM); 3) H-89 (0.1 μM); or 4) PIO+ATV+H-89 for 12 hours. The supernatants were collected directly for LTB4 analyses by ELISA and the cells were harvested for immunoblotting. In addition, cells were plated in 8-chamber slides, received the same treatment as above and were used for immunohistochemical staining.
Equal amounts of total cellular RNA were reverse-transcribed with oligo(dT) primer by use of AMV Reverse Transcriptase (Applied Biosystems). Transcribed cDNAs (40 ng) were used for Real Time PCR with specific primers: rat ALOX5. […] The Ct (threshold cycle) is defined as the number of cycles required for the fluorescence signal to exceed the detection threshold. Expression of the ALOX5 relative to the GAPDH was calculated as the different between the threshold values of these two genes. […]

O=S(=O)(NCCNC/C=C/c1ccc(Br)cc1)c1cccc2cnccc12 [H-89]
effect on the increase in P-5LO by PIO and ATV ([1]; H-89 20 mg/kg i.p. with PIO or ATV 10 mg/kg/d): completely blocked | myocardial levels of Ser523 phosphorylated 5LO (P-5LO) [1]: did not affect | myocardial total 5LO levels [1]: did not affect | 5LO mRNA levels in the cardiomyocytes [2]: did not affect

CC(C)c1c(C(=O)Nc2ccccc2)c(-c2ccccc2)c(-c2ccc(F)cc2)n1CCC(O)CC(O)CC(=O)O (centres unmarked) [ATV, 7-[2-(4-fluorophenyl)-5-(1-methylethyl)-3-phenyl-4-(phenylcarbamoyl)-1H-pyrrol-1-yl]-3,5-dihydroxy-heptanoic acid]
5LO phosphorylation, PIO and ATV compared with LPS ([1]; PIO, ATV 10 mg/kg/d, LPS 10 mg/kg i.v.): significantly greater increase | myocardial levels of Ser523 phosphorylated 5LO (P-5LO) [1]: augment; also recorded: increased | myocardial total 5LO levels [1]: without detectable change; also recorded: did not affect | 5LO mRNA levels in the cardiomyocytes [2]: did not affect

— patent US20090042849A1, “Phosphorylation of 5-lipoxygenase at ser523 and uses thereof” (priority 2006, published 2009)
